Consider 21 compounds from patent publication US12421249B2, “Inhibitors of APOL1 and methods of using same” (Vertex Pharmaceuticals Incorporated, priority 2020, dated 2025).

The structures appear in SMILES notation.

One experiment deals with T1, APOL1 G1 (Homo sapiens, UniProt O14791, I384M/S342G).
T1 sequence (O14791 28-398 S342G/I384M): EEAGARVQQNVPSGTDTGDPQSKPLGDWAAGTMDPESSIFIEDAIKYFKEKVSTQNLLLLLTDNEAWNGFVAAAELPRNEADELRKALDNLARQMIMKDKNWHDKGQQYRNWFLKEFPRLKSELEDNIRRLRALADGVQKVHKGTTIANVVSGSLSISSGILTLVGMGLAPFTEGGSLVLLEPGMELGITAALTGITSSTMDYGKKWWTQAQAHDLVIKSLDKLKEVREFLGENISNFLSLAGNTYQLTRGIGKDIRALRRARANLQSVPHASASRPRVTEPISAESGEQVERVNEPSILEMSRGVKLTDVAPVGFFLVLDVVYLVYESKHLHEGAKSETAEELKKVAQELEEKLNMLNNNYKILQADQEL
Description: Trypanosoma brucei brucei Lysis Assay Using APOL1 Recombinant Protein (AlamarBlue viability readout). The format is cell-based. The following applies: Trypanosome Assay; for IC50: IP50 = IC50 for cell proliferation, read-out: Trypanosome Assay IP50; for Emax: read-out: Trypanosome Assay Max Activity (%). An excerpt: Trypanosoma brucei brucei is a blood stream parasite to which human, gorillas, and baboons are immune due to the presence of the APOL1 protein in their HDL particles. The protein is uptaken by the parasite via the TbHpHb receptor located in its flagellar pocket and is bonded by the Hpr protein contained in the HDL particles which triggers the receptor endocytosis by the parasite.
Following endocytosis, the formed vesicle containing the HDL particle matures from early to late endosome, and subsequently to lysosome. The concomitant pH change in the lumen of the vesicle triggers the insertion of the APOL1 protein into the membrane of the late endosome/lysosome and hereby triggers lysosomal membrane permeabilization and as a further downstream event, trypanosome lysis. Trypanosoma brucei brucei is sensitive to lysis by all three APOL1 variants (G0, G1, and G2).
The Trypanosoma brucei brucei lysis assay is a lysis assay of the parasite using recombinant APOL1 protein variant followed by a fluorescent detection method of viability by the addition of AlamarBlue reagent to the assay well, a general metabolic redox indicator (AlamarBlue assay).
Briefly, the AlamarBlue active compound, resazurin, a blue, water soluble, non-toxic and cell permeable molecule, which can be followed by absorbance, is reduced by various metabolic pathways into resorufin, a red compound which can be followed by either absorbance or fluorescence. The assay allows the calculation of the percent viability (percent of living Trypanosomes remaining in each well) at the end of a lysis relative to the untreated condition by interpolation of fluorescent values (FLU) on a standard curve with a known amount of seeded trypanosome/well.
Trypanosoma brucei brucei (ATCC, Cat. No. PRA-382)
• Lister 427 VSG 221 bloodstream form.
Equipment • E1-Clip Tip pipette 12 channel adjustable 2-125 μL, Cat. No. 4672070BT • ThermoFisher MultiDrop 384, Cat. No. 5840300 • Multidrop • Agilent Bravo, Cat. No. G5409A • Bravo • SpectraMax M5 Assay Ready Plates (ARPs) • ARPs comes in two formats: • […] final top concentration with a 2.5 fold dilution down. • […] final top concentration with a 3 fold dilution down. • Both have a 10 point Dose response. • 0.1% DMSO final in the Black Assay Plate. • Compounds are diluted 1000 fold in the Black Assay Plate. • Each plate is designed for 14 compounds in duplicate. • In the final Black Assay Plate: • Column 1: Media only (no APOL1) (100% viable) • Column 2-23: 0.05 μg/mL APOL1 (˜EC90) (10% viable with APOL1) • Column 24: 0.1 μg/mL APOL1 (EC100) (Approx. […] Step 2, Day 4 • Centrifuge at 800×g for 5 minutes at room temperature. • Resuspend in 1 mL media. • Make a 1:25 fold dilution (10 μL/240 μL media). • Count on a hemocytometer (after adding parasites). • Let sit for 1-2 minutes for the parasites to settle. • Count should be approximately 100 viable motile parasites/16 grid or approximately 25×10^6 parasites/flask. • Passage the parasites by adding 1×10^6 parasites/T75 flask in 20 mL media. • Passage the parasites by adding 2.33×10^6 parasites/T175 flask in 46.6 mL media. • For every T75 flask should make enough for approximately 1.5×384 well assay plates. • For every T175 flask should make enough for approximately 3.8×384 well assay plates. Step 3, Day 6 • Centrifuge at 800×g for 5 minutes. • Resuspend in 3 mL assay media (No phenol red, no FBS) per 75 starting flask. • Resuspend in 7 mL assay media (No phenol red, no FBS) per 175 flask • Make a 1:25 fold dilution. • Count by hemocytometer. • Every T75 flask set up should have approximately 75×10^6 parasites/flask (verify doubling time=8.7 hours±1 hour). • Every T175 flask set up should have approximately 175×10^6 parasites/flask (verify doubling time=8.7 hours±1 hour). • Require 46×10^6 parasites per 384 well plate (at 120,000 parasites per well). […]
(In general: Alamar Blue is a resazurin reagent that responds to reducing activity.)

In another experiment the target is T2, APOL1 (Homo sapiens, UniProt O14791).
T2 sequence (O14791 1-398 S342G/I384M): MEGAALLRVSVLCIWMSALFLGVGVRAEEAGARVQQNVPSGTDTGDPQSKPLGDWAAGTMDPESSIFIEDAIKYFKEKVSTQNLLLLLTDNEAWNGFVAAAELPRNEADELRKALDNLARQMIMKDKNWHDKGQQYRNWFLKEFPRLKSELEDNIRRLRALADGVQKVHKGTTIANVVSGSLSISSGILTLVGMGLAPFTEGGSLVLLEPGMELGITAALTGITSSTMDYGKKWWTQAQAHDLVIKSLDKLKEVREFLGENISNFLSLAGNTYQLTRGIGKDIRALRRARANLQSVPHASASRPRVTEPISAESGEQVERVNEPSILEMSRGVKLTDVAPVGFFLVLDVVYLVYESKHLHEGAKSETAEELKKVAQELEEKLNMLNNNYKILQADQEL
The experiment is described as follows: Multi-Tox Assay (MultiTox-Fluor Multiplex Cytotoxicity Assay in tet-inducible APOL1 T-REx-HEK293 cells; Table 46 does not say which APOL1 variant G0/G1/G2). Format: cell-based. The following applies: APOL1 variant not given; for IC50: IP50 = IC50 for cell proliferation.

As for `Cc1cc([C@@H]2C[C@]3(C[C@H](C)N2)OCCc2cc(Cl)sc23)ccn1` (racemic) [Compound 21, (2S)-2-chloro-2′-methyl-6′-(2-methyl-4-pyridyl)spiro[4,5-dihydrothieno[2,3-c]pyran-7,4′-piperidine]], on APOL1 G1, the IC50 was less than 50 nM and the Emax turned out to be 108%. The IC50 at APOL1 was less than 50 nM.

By IC90 is commonly meant the concentration at which the effect reaches the 90% level. Turning to `CC1CC2(CC(c3cn(C)cn3)N1)OCCc1cc(Cl)sc12` (racemic) [Compound 22], on APOL1 G1, the IC50 is less than 50 nM and the Emax was found to be 129%. On APOL1, the IC90 was less than 50 nM, the “Multi-Tox Assay Max Activity (%)” value worked out at 99.7% and the IC50 is less than 50 nM.

As for `Cc1noc2cc([C@@H]3C[C@]4(C[C@H](C)N3)OCCc3cc(Cl)sc34)ccc12` (racemic) [Compound 25], at APOL1 G1, the IC50 was less than 50 nM and the Emax was found to be 109%. In addition, on APOL1, the “Multi-Tox Assay Max Activity (%)” value worked out at 100.0% and the IC50 was less than 50 nM.

For the compound `C[C@H]1C[C@@]2(C[C@@H](c3cnc4c(cnn4C)c3)N1)OCCc1cc(Cl)sc12` (racemic) [Compound 26], on APOL1 G1, the IC50 is less than 50 nM and the Emax was 110%. For the same compound, on APOL1, the “Multi-Tox Assay Max Activity (%)” value was 100.0% and the IC50 was less than 50 nM.

For `C[C@H]1C[C@@]2(C[C@@H](c3ccc4oc(=O)n(C)c4c3)N1)OCCc1cc(Cl)sc12` (racemic) [Compound 28], at APOL1 G1, the IC50 is less than 50 nM and the Emax came to 104%. At APOL1, the concentration for an effect of 90% (IC90) was less than 50 nM, the “Multi-Tox Assay Max Activity (%)” value is reported as 100.0% and the IC50 was less than 50 nM.

`Cc1cc([C@@H]2C[C@]3(C[C@H](C)N2)OCCc2cc(Cl)sc23)no1` (racemic) [Compound 29]: on APOL1 G1, the IC50 is less than 50 nM and the Emax came to 109%. At APOL1, the IC90 was less than 50 nM, the “Multi-Tox Assay Max Activity (%)” value is on record as 100.0% and the IC50 was less than 50 nM.

As to `C[C@H]1C[C@@]2(C[C@@H](c3ccc4c(c3)n(C)c(=O)n4C)N1)OCCc1cc(Cl)sc12` (racemic) [Compound 32], on APOL1 G1, the IC50 is less than 50 nM and the Emax worked out at 116%. Besides, at APOL1, the IC90 was less than 50 nM, the “Multi-Tox Assay Max Activity (%)” value amounted to 99.6% and the IC50 was less than 50 nM.

For `COCCOCCOc1ccc([C@@H]2C[C@]3(C[C@H](C)N2)OCCc2cc(Cl)sc23)cc1` (racemic) [Compound 36], on APOL1 G1, the IC50 is less than 50 nM and the Emax is 118%. Besides, on APOL1, the 90% effect concentration (IC90) is less than 50 nM, the “Multi-Tox Assay Max Activity (%)” value is on record as 100.0% and the IC50 was less than 50 nM.

For the compound `COc1ccc([C@@H]2C[C@]3(C[C@H](C)N2)OCCc2cc(Cl)sc23)c(F)c1` (racemic) [Compound 44], at APOL1 G1, the IC50 is less than 50 nM and the Emax came out at 106%. At APOL1, the “Multi-Tox Assay Max Activity (%)” value amounted to 99.5% and the IC50 is less than 50 nM.

For `C[C@H]1C[C@@]2(C[C@@H](c3ccc(C(N)=O)cc3)N1)OCCc1cc(Cl)sc12` (racemic) [Compound 47], the IC50 on APOL1 G1 and against APOL1 was less than 50 nM in each case.

For `Cc1n[nH]c2ncc([C@@H]3C[C@]4(C[C@H](C)N3)OCCc3cc(Cl)sc34)cc12` (racemic) [Compound 48], on APOL1 G1, the IC50 was less than 50 nM and the Emax worked out at 102%. For the same compound, on APOL1, the “Multi-Tox Assay Max Activity (%)” value came out at 99.0% and the IC50 was less than 50 nM.

In the case of `COc1ccc([C@@H]2C[C@]3(C[C@H](C)N2)OCCc2cc(Cl)sc23)cn1` (racemic) [Compound 49], at APOL1 G1, the IC50 was less than 50 nM and the Emax was 104%. The same compound registered an IC50 on APOL1 of less than 50 nM.

In the case of `CC(=O)Nc1ccc([C@@H]2C[C@]3(C[C@H](C)N2)OCCc2cc(Cl)sc23)cc1` (racemic) [Compound 50], at APOL1 G1, the IC50 is less than 50 nM and the Emax is 103%. For the same compound, on APOL1, the “Multi-Tox Assay Max Activity (%)” value was determined as 99.7% and the IC50 was less than 50 nM.

As to `C[C@H]1C[C@@]2(C[C@@H](c3cnc(C4CC4)nc3)N1)OCCc1cc(Cl)sc12` (racemic) [Compound 52], on APOL1 G1, the IC50 is less than 50 nM and the Emax turned out to be 104%. On APOL1, the “Multi-Tox Assay Max Activity (%)” value is listed as 99.7% and the IC50 was less than 50 nM.

With `C[C@H]1C[C@@]2(C[C@@H](c3cccc(C#N)n3)N1)OCCc1cc(Cl)sc12` (racemic) [Compound 53], on APOL1 G1, the IC50 fell in the range of 50 to 500 nM and the Emax amounted to 106%. On APOL1, the “Multi-Tox Assay Max Activity (%)” value came to 99.3% and the IC50 is less than 50 nM.

For `C[C@H]1C[C@@]2(C[C@@H](c3ccc4c(c3)NC(=O)CO4)N1)OCCc1cc(Cl)sc12` (racemic) [Compound 54], at APOL1 G1, the IC50 is less than 50 nM and the Emax came to 102%. Further, at APOL1, the IC90 was less than 50 nM, the “Multi-Tox Assay Max Activity (%)” value is recorded as 100.0% and the IC50 is less than 50 nM.

As to `Cc1ccc([C@@H]2C[C@]3(C[C@H](C)N2)OCCc2cc(Cl)sc23)cn1` (racemic) [Compound 55], on APOL1 G1, the IC50 is less than 50 nM and the Emax is 112%. Moreover, on APOL1, the “Multi-Tox Assay Max Activity (%)” value turned out to be 99.7% and the IC50 was less than 50 nM.

Regarding `C[C@H]1C[C@@]2(C[C@@H](c3cnn(CCO)c3)N1)OCCc1cc(Cl)sc12` (racemic) [Compound 56], at APOL1 G1, the IC50 was less than 50 nM and the Emax was 116%. Besides, on APOL1, the “Multi-Tox Assay Max Activity (%)” value worked out at 99.8% and the IC50 is less than 50 nM.

On to `C[C@H]1C[C@@]2(C[C@@H](c3cnc(N)nc3)N1)OCCc1cc(Cl)sc12` (racemic) [Compound 57], for which, on APOL1 G1, the IC50 was less than 50 nM and the Emax stood at 105%. Further, on APOL1, the “Multi-Tox Assay Max Activity (%)” value is listed as 99.7% and the IC50 is less than 50 nM.

`Cc1ccc([C@@H]2C[C@]3(C[C@H](C)N2)OCCc2cc(Cl)sc23)nn1` (racemic) [Compound 58]: at APOL1 G1, the IC50 is less than 50 nM and the Emax was determined as 100%. On APOL1, the “Multi-Tox Assay Max Activity (%)” value stood at 99.7% and the IC50 was less than 50 nM.

In the case of `C[C@H]1C[C@@]2(C[C@@H](c3ccc(O)cn3)N1)OCCc1cc(Cl)sc12` (racemic) [Compound 59], on APOL1 G1, the IC50 is less than 50 nM and the Emax worked out at 116%. For the same compound, at APOL1, the “Multi-Tox Assay Max Activity (%)” value worked out at 99.3% and the IC50 is less than 50 nM.
